Data on one compound can be found in patent US20200281965A1, “[…] NITRIC OXIDE” (Beyond Air, Inc., priority 2017, published 2020).

Data set [1] concerns human respiratory syncytial virus (rgRSV30). It is filed as cell-based.
The test system of data set [2] is human influenza (influenza A/victoria H3N2) and highly pathogenic avian influenza (H7N2). It counts as cell-based, influenza virus.
Data set [3] can be described thus: safety monitoring of human subjects undergoing intermittent gNO inhalation. It counts as in vivo. An excerpt: In some embodiments, the methods disclosed herein are effected while monitoring various parameters relevant for maintaining the desired dosage and regimen, relevant to the safety of the procedure and relevant for efficacy of the treatment. Exemplary such parameters are those obtainable on-site in real-time, such as methemoglobin level, end-tidal CO2 level, and oxygenation, and parameters which are obtainable off-site in the laboratory, such as blood nitrite level, urine nitrite level, and inflammatory markers' level. […] Embodiments of the present invention therefore relate to methods of administering gaseous nitric oxide to human subjects in need thereof, while these parameters remain substantially unchanged.
As methemoglobin levels can be measured using noninvasive measures, the parameter of percent saturation at the periphery of methemoglobin (SpMet) is used to monitor the stability, safety and effectiveness of the method presented herein.

Where [4] appears, read: human subjects undergoing the disclosed regimen.

Turning to `[N]=O` [gNO, nitric oxide], the “infectivity of RSV” value in data set [1] was “reduced their infectivity”. Also, the infectivity of influenza result in data set [2] is listed as “reduced their infectivity”. For the same compound, in data set [3] (setting [4]), the “change in inflammatory markers” value is recorded as “no substantial change”, the “change in methemoglobin level” value is given as “no substantial change” and the “change in serum nitrite level” value is on record as “no substantial change”. Besides, the “SpMet level (percent saturation at the periphery of methemoglobin)” value in data set [3] (human subjects undergoing the method, during and following administration) is on record as not above 1%.
